Data as given in patent US10632106B2, “Methods of cancer treatment with 2-(1′H-Indole-3′-carbonyl)-thiazole-4-carboxylic acid methyl ester” (Ariagen, Inc., priority 2009, dated 2020).

Experiment: Effects of oral water administration on ITE dosed mice
Format: in vivo
Design: key to feces appearance: Moderate; Dry
Conditions: for feces appearance (visual): after one week of dosing
Procedure: Oral injection of water was initiated at the same day i.p. administration of ITE was started. Daily oral gavage at 10 or 20 ml/kg was performed immediately following daily i.p. injection of ITE or DMSO continuously for the entire duration of the study. Both oral and i.p. injection were accidentally skipped at day 14 due to a mistake of the experimenter(s) and all of the other dosing were executed normally. Bodyweights (individual), food consumed (in group), feces weights (in group), and feces appearance (in group) were recorded every two days. Death of animal(s) and approximate cause of death etc. were also recorded.

[1] = ITE-H 300 mg/kg i.p. + Water-0, day 4
[2] = ITE-H 300 mg/kg i.p. + Water-0, day 6
[3] = ITE-H 300 mg/kg i.p. + Water-0, day 8
[4] = ITE-H 300 mg/kg i.p. + Water-0, day 10
[5] = ITE-H 300 mg/kg i.p. + Water-0, day 12
[6] = ITE-H 300 mg/kg i.p. + Water-0, day 14
[7] = ITE-H 300 mg/kg i.p. + Water-0, day 18 (line r16)
[8] = ITE-H 300 mg/kg i.p. + Water-0, day 18 (line r17)
[9] = ITE-H 300 mg/kg i.p. + Water-0, day 20
[10] = ITE-H 300 mg/kg i.p. + Water-0, day 22
[11] = ITE-H 300 mg/kg i.p. + Water-0, day 24
[12] = ITE-H 300 mg/kg i.p. + Water-0, day 26
[13] = ITE-H 300 mg/kg i.p. + Water-0, day 28
[14] = ITE-H 300 mg/kg i.p. + Water-0, day 30
[15] = ITE-H 300 mg/kg i.p. + Water-0, day 32
[16] = ITE-H 300 mg/kg i.p. + Water-0, day 34
[17] = ITE-H 300 mg/kg i.p. + Water-0, day 36
[18] = ITE-H 300 mg/kg i.p. + Water-H 20 ml/kg, day 4
[19] = ITE-H 300 mg/kg i.p. + Water-H 20 ml/kg, day 6
[20] = ITE-H 300 mg/kg i.p. + Water-H 20 ml/kg, day 8
[21] = ITE-H 300 mg/kg i.p. + Water-H 20 ml/kg, day 10
[22] = ITE-H 300 mg/kg i.p. + Water-H 20 ml/kg, day 12
[23] = ITE-H 300 mg/kg i.p. + Water-H 20 ml/kg, day 14
[24] = ITE-H 300 mg/kg i.p. + Water-H 20 ml/kg, day 18 (line r16)
[25] = ITE-H 300 mg/kg i.p. + Water-H 20 ml/kg, day 18 (line r17)
[26] = ITE-H 300 mg/kg i.p. + Water-H 20 ml/kg, day 20
[27] = ITE-H 300 mg/kg i.p. + Water-H 20 ml/kg, day 22
[28] = ITE-H 300 mg/kg i.p. + Water-H 20 ml/kg, day 24
[29] = ITE-H 300 mg/kg i.p. + Water-H 20 ml/kg, day 26
[30] = ITE-H 300 mg/kg i.p. + Water-H 20 ml/kg, day 28
[31] = ITE-H 300 mg/kg i.p. + Water-H 20 ml/kg, day 30
[32] = ITE-H 300 mg/kg i.p. + Water-H 20 ml/kg, day 32
[33] = ITE-H 300 mg/kg i.p. + Water-H 20 ml/kg, day 34
[34] = ITE-H 300 mg/kg i.p. + Water-L 10 ml/kg, day 4
[35] = ITE-H 300 mg/kg i.p. + Water-L 10 ml/kg, day 6
[36] = ITE-H 300 mg/kg i.p. + Water-L 10 ml/kg, day 8
[37] = ITE-H 300 mg/kg i.p. + Water-L 10 ml/kg, day 10
[38] = ITE-H 300 mg/kg i.p. + Water-L 10 ml/kg, day 12
[39] = ITE-H 300 mg/kg i.p. + Water-L 10 ml/kg, day 14
[40] = ITE-H 300 mg/kg i.p. + Water-L 10 ml/kg, day 18 (line r16)
[41] = ITE-H 300 mg/kg i.p. + Water-L 10 ml/kg, day 18 (line r17)
[42] = ITE-H 300 mg/kg i.p. + Water-L 10 ml/kg, day 20
[43] = ITE-H 300 mg/kg i.p. + Water-L 10 ml/kg, day 22
[44] = ITE-H 300 mg/kg i.p. + Water-L 10 ml/kg, day 24
[45] = ITE-H 300 mg/kg i.p. + Water-L 10 ml/kg, day 26
[46] = ITE-H 300 mg/kg i.p. + Water-L 10 ml/kg, day 28
[47] = ITE-H 300 mg/kg i.p. + Water-L 10 ml/kg, day 30
[48] = ITE-H 300 mg/kg i.p. + Water-L 10 ml/kg, day 32
[49] = ITE-H 300 mg/kg i.p. + Water-L 10 ml/kg, day 34

COC(=O)c1csc(C(=O)c2c[nH]c3ccccc23)n1 [ITE, 2-(1′H-indole-3′-carbonyl)-thiazole-4-carboxylic acid methyl ester]
feces appearance (visual) (ITE high (300 mg/kg)): dry | day at which one mouse died (ITE high dose (300 mg/kg) without oral water administration): 36 days | feces appearance (visual) (ITE low (200 mg/kg)): dry | day at which one mouse died (ITE low dose (200 mg/kg) without oral water administration): 28 days | feces appearance [1]: M | number of mice that died [1]: 0 | feces appearance [2]: M | number of mice that died [2]: 0 | feces appearance [3]: D | number of mice that died [3]: 0 | feces appearance [4]: D | number of mice that died [4]: 0 | feces appearance [5]: D | number of mice that died [5]: 0 | feces appearance [6]: D | number of mice that died [6]: 0 | feces appearance [7]: D | number of mice that died [7]: 0 | feces appearance [8]: D | number of mice that died [8]: 0 | feces appearance [9]: D | number of mice that died [9]: 0 | feces appearance [10]: D | number of mice that died [10]: 0 | feces appearance [11]: D | number of mice that died [11]: 0 | feces appearance [12]: D | number of mice that died [12]: 0 | feces appearance [13]: D | number of mice that died [13]: 0 | feces appearance [14]: D | number of mice that died [14]: 0 | feces appearance [15]: D | number of mice that died [15]: 0 | feces appearance [16]: D | number of mice that died [16]: 0 | feces appearance [17]: D | number of mice that died [17]: 1 | feces appearance [18]: M | number of mice that died [18]: 0 | feces appearance [19]: M | number of mice that died [19]: 0 | feces appearance [20]: D | number of mice that died [20]: 0 | feces appearance [21]: D | number of mice that died [21]: 0 | feces appearance [22]: D | number of mice that died [22]: 0 | feces appearance [23]: D | number of mice that died [23]: 0 | feces appearance [24]: D | number of mice that died [24]: 0 | feces appearance [25]: D | number of mice that died [25]: 0 | feces appearance [26]: D | number of mice that died [26]: 0 | feces appearance [27]: D | number of mice that died [27]: 0 | feces appearance [28]: D | number of mice that died [28]: 0 | feces appearance [29]: D | number of mice that died [29]: 0 | feces appearance [30]: M | number of mice that died [30]: 0 | feces appearance [31]: M | number of mice that died [31]: 0 | feces appearance [32]: M | number of mice that died [32]: 0 | feces appearance [33]: M | number of mice that died [33]: 0 | feces appearance [34]: M | number of mice that died [34]: 0 | feces appearance [35]: M | number of mice that died [35]: 0 | feces appearance [36]: D | number of mice that died [36]: 0 | feces appearance [37]: D | number of mice that died [37]: 0 | feces appearance [38]: D | number of mice that died [38]: 0 | feces appearance [39]: D | number of mice that died [39]: 0 | feces appearance [40]: D | number of mice that died [40]: 0 | feces appearance [41]: D | number of mice that died [41]: 0 | feces appearance [42]: D | number of mice that died [42]: 0 | feces appearance [43]: D | number of mice that died [43]: 0 | feces appearance [44]: D | number of mice that died [44]: 0 | feces appearance [45]: D | number of mice that died [45]: 0 | feces appearance [46]: M | number of mice that died [46]: 0 | feces appearance [47]: M | number of mice that died [47]: 0 | feces appearance [48]: M | number of mice that died [48]: 0 | feces appearance [49]: M | number of mice that died [49]: 0
